In US11952363B2, “Piperazine compounds for the treatment of autoimmune disease” (Hoffmann-La Roche Inc., priority 2018, dated 2024):

target: T1, human TLR7 (Homo sapiens, UniProt Q9NYK1); experiment: HEK293-Blue-hTLR-7 cells assay (SEAP reporter, R848 stimulation); type: cell-based; details: HEK293-Blue-hTLR7 cells, R848 ligand, 20 hrs incubation; read-out: HEK/hTLR7 IC50
T1 sequence (Q9NYK1 27-1049): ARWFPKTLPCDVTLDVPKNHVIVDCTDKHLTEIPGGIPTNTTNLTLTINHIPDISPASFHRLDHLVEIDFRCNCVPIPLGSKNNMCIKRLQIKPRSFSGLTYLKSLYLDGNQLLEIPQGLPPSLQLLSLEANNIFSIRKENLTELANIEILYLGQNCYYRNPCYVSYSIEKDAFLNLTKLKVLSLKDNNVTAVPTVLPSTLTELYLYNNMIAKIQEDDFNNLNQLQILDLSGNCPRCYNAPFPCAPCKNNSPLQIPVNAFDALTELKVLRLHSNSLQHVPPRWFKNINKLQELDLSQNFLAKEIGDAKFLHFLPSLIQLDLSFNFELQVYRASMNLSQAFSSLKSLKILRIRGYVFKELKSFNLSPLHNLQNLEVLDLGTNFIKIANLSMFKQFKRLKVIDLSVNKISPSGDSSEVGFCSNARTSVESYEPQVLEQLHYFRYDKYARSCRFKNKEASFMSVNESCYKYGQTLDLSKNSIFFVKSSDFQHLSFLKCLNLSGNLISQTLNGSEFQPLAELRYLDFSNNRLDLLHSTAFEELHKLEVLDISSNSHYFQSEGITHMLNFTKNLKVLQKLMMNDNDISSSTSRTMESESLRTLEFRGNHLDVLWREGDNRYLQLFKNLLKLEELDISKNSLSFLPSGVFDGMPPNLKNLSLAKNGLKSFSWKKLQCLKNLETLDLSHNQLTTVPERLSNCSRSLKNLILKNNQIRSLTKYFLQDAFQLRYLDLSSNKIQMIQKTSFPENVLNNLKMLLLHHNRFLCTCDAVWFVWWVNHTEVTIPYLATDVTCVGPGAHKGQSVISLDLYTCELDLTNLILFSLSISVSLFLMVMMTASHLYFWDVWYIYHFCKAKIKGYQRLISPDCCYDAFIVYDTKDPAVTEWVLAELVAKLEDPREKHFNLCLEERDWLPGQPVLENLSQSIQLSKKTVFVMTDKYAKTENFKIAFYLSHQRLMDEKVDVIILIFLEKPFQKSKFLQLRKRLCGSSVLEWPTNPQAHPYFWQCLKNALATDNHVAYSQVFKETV
Experimental: The following tests were carried out in order to determine the activity of the compounds of formula (I) in HEK293-Blue-hTLR-7/8/9 cells assay.
A stable HEK293-Blue-hTLR-7 cell line was purchased from InvivoGen (Cat.#: hkb-htlr7, San Diego, California, USA). These cells were originally designed for studying the stimulation of human TLR7 by monitoring the activation of NF-κB. A SEAP (secreted embryonic alkaline phosphatase) reporter gene was placed under the control of the IFN-β minimal promoter fused to five NF-κB and AP-1-binding sites. The SEAP was induced by activating NF-κB and AP-1 via stimulating HEK-Blue hTLR7 cells with TLR7 ligands. Therefore the reporter expression was declined by TLR7 antagonist under the stimulation of a ligand, such as R848 (Resiquimod), for incubation of 20 hrs. The cell culture supernatant SEAP reporter activity was determined using QUANTI-Blue™ kit (Cat.#: rep-qb1, Invivogen, San Diego, Ca, USA) at a wavelength of 640 nm, a detection medium that turns purple or blue in the presence of alkaline phosphatase.
HEK293-Blue-hTLR7 cells were incubated at a density of 250,000˜450,000 cells/mL in a volume of 170 μL in a 96-well plate in Dulbecco's Modified Eagle's medium (DMEM) containing 4.5 g/L glucose, 50 U/mL penicillin, […], […], 2 mM L-glutamine, 10% (v/v) heat-inactivated fetal bovine serum with addition of 20 μL test compound in a serial dilution in the presence of final DMSO at 1% and 10 μL of 20 uM R848 in above DMEM, perform incubation under 37° C. in a CO2 incubator for 20 hrs. Then 20 μL of the supernatant from each well was incubated with […] Quanti-blue substrate solution at 37° C. for 2 hrs and the absorbance was read at 620-655 nm using a spectrophotometer. The signalling pathway that TLR7 activation leads to downstream NF-κB activation has been widely accepted, and therefore similar reporter assay was modified for evaluating TLR7 antagonist.

| IC50 | SMILES |
| --- | --- |
| 67 nM | C[C@@H]1CN(c2ccc(C#N)c3ncccc23)C[C@H](C)N1CC(=O)N1CCc2ccc(N3CCNCC3)cc2C1 [Example 15, 5-[(3R,5S)-3,5-dimethyl-4-[2-pxp-2-(7-piperazin-1-yl-3,4-dihydro-1H-isoquinolin-2-yl)ethyl]piperazin-1-yl]quinoline-8-carbonitrile] |
| 57 nM | CC1CN(c2ccc(C#N)c3ncccc23)CCN1CC(=O)N1CCC(C2CCN(C)CC2)CC1 (stereo not shown) [Example 19, 5-[3-methyl-4-[2-[4-(1-methyl-4-piperidyl)-1-piperidyl]-2-oxo-ethyl]piperazin-1-yl]quinoline-8-carbonitrile] |
| 80 nM | C[C@@H]1CN(c2ccc(C#N)c3ncccc23)C[C@H](C)N1CC(=O)N1CCc2cc(N3CCNCC3)ccc2C1 [Example 14, 5-[(3R,5S)-3,5-Dimethyl-4-[2-oxo-2-(6-piperazin-1-yl-3,4-dihyrdo-1H-isoquinolin-2-yl)ethyl]piperazin-1-yl]quinoline-8-carbonitrile] |
| 60 nM | CC1CN(c2ccc(C#N)c3ncccc23)CCN1CC(=O)Nc1ccc2c(c1)CCNC2 (stereo not shown) [Example 18, 2-[4-(8-Cyano-5-quinolyl)-2-methyl-piperazin-1yl]-N-(1,2,3,4-tetrahydroisoquinolin-6-yl)acetamide] |
| 88 nM | CC1CN(c2ccc(C#N)c3ncccc23)CCN1CC(=O)Nc1ccc(N2CCNCC2)cc1 (stereo not shown) [Example 17, 2-[4-(8-Cyano-5-quinolyl)-2-methyl-piperazin-1-yl]-N-(4-piperazin-1-ylpheny)acetamide] |
| 35 nM | C[C@@H]1CN(c2ccc(C#N)c3ncccc23)C[C@H](C)N1CC(=O)N1Cc2ccc(N3CCNCC3)cc2C1 [Example 16, 5-[(3R,5S)-3,5-Dimethyl-4-[2-oxo-2-(5-piperazin-1-ylisoindolin-2-yl)ethyl]piperazin-1-yl]quinoline-8-carbonitrile] |

Further lines, the molecule ahead of its results:

| SMILES | IC50 |
| --- | --- |
| C[C@@H]1CN(c2ccc(C#N)c3ncccc23)C[C@H](C)N1CC(=O)N1CCc2nc(N3CCNCC3)ccc2C1 [Example 13, 5-[(3R,5S)-3,5-Dimethyl-4-[2-oxo-2-(2-piperazin-1-yl-7,8-dihydro-5H-1,6-naphthyridin-6-yl)ethyl]piperazin-1-yl]quinoline-8-carbonitrile] | 56 nM |
| C[C@@H]1CN(c2ccc(C#N)c3ncccc23)C[C@H](C)N1Cc1ncc(N2CCNCC2)cn1 [Example 4, 5-[(3S,5R)-3,5-Dimethyl-4-[(5-piperazin-1-ylpyrimidin-2-yl)methyl]piperazin-1-yl]quinoline-8-carbonitrile] | 16 nM |
| C[C@@H]1CN(c2ccc(C#N)c3ncccc23)C[C@H](C)N1Cc1ccc(N2CCN(C(=O)C3CCCN3)CC2)cn1 (stereo partly drawn) [Example 10, 5-[(3R,5S)-3,5-Dimethyl-4-[[5-[4-(pyrrolidine-2-carbonyl)piperazin-1-yl]-2-pyridyl]methyl]piperazin-1-yl]quinoline-8-carbonitrile] | 69 nM |
| C[C@@H]1CN(c2ccc(C#N)c3ncccc23)C[C@H](C)N1Cc1ccc(N[C@@H]2CNC[C@@H]2F)cn1 [Example 9, 5-[(3R,5S)-3,5-Dimethyl-4-[[5-[[(3R,4S)-4-fluoropyrrolidin-3-yl]amino]-2-pyridyl]methyl]piperazin-1-yl]quinoline-8-carbonitrile] | 51 nM |
| C[C@@H]1CN(c2ccc(C#N)c3ncccc23)C[C@H](C)N1Cc1ccc(N2CCN(C)CC2)cn1 [Example 7, 5-[(3S,5R)-3,5-dimethyl-4-[[5-(4-methylpiperazin-1-yl)-2-pyridyl]methyl]piperazin-1-yl]quinoline-8-carbonitrile] | 30 nM |
| C[C@@H]1CN(c2ccc(C#N)c3ncccc23)C[C@H](C)N1Cc1ccc(N2CCNCC2)cn1 [Example 5, 5-[(3S,5R)-3,5-Dimethyl-4-[(5-piperazin-1-yl-2-pyridyl)methyl]piperazin-1-yl]quinoline-8-carbonitrile] | 12 nM |
| C[C@@H]1CN(c2ccc(C#N)c3ncccc23)C[C@H](C)N1Cc1ncc(N2CCN(C(=O)CN(C)C)CC2)cn1 [Example 6, 5-[(3S,5R)-4-[[5-[4-[2-(Dimethylamino)acetyl]piperazin-1-yl]pyrimidin-2-yl]methyl]-3,5-dimethyl-piperazin-1-yl]quinoline-8-carbonitrile] | 67 nM |
| C[C@@H]1CN(c2ccc(C#N)c3ncccc23)C[C@H](C)N1Cc1ccc(N2CC3CNCC(C2)O3)cn1 [Example 8, 5-[(3S,5R)-3,5-Dimethyl-4-[[5-(9-oxa-3,7-diazabicyclo[3.3.1]nonan-3-yl)-2-pyridyl]methyl]piperazin-1-yl]quinoline-8-carbonitrile] | 78 nM |
| C[C@@H]1CN(c2ccc(C#N)c3ncccc23)C[C@H](C)N1Cc1ccc(N2CCNCC2)nc1 [Example 3, 5-[(3R,5S)-3,5-Dimethyl-4-[(6-piperazin-1-yl-3-pyridyl)methyl]piperazin-1-yl]quinoline-8-carbonitrile] | 19 nM |
| C[C@@H]1CN(c2ccc(C#N)c3ncccc23)C[C@H](C)N1Cc1ccc(N2CCN(C(=O)CN(C)C)CC2)cn1 [Example 11, 5-[(3S,5R)-4-[[5-[4-[2-(Dimethylamino)acetyl]piperazin-1-yl]-2-pyridyl]methyl]-3,5-dimethyl-piperazin-1-yl]quinoline-8-carbonitrile] | 50 nM |
| C[C@@H]1CN(c2ccc(C#N)c3ncccc23)C[C@H](C)N1Cc1ccc(N2CCNCC2)cc1 [Example 1, 5-[(3R,5S)-3,5-Dimethyl-4-[(4-piperazin-1-ylphenyl)methyl]piperazin-1-yl]quinoline-8-carbonitrile] | 53 nM |
| C[C@@H]1CN(c2ccc(C#N)c3ncccc23)C[C@@H](C)N1Cc1ccc(N2CCNCC2)cc1 [Example 2] | 87 nM |
| C[C@@H]1CN(c2ccc(C#N)c3ncccc23)C[C@H](C)N1Cc1ccc(N2CCNCC2CO)cc1 (stereo partly drawn) [Example 12, 5-[(3R,5S)-4-[[4-[2-(Hydroxymethyl)piperazin-1-yl]phenyl]methyl]-3,5-dimethyl-piperazin-1-yl]quinoline-8-carbonitrile] | 87 nM |
